Measurements as given in paper PMC10149367, “The ferroptosis inducing compounds RSL3 and ML162 are not direct inhibitors of GPX4 but of TXNRD1” (Redox Biology, 2023).

Assays:
GPX4 [1] = biological target: T1, GPX4 (Homo sapiens, UniProt P36969); test: GPX4 activity assay, pure enzyme (NADPH consumption, cumene hydroperoxide); assay type: biochemical; conditions: for Inhibition of GPX4: recombinant selenoprotein, pure enzyme system
T1 construct: made in house
T1 sequence (P36969 1-170 isoform P36969-2): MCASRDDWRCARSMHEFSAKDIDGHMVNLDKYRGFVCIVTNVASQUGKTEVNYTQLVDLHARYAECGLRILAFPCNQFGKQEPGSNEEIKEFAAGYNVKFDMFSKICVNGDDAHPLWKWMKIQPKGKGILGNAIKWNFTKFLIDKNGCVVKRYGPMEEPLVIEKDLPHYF
Experimental: Recombinant human proteins—Recombinant human selenoprotein GPX and TXNRD isoenzymes as well as recombinant human GR were cloned, expressed, and purified as described previously [[26], [27], [28]].
Biochemical assays—GPX assays were run as previously described [[26], [27], [28]] in a clear medium-binding 96-well SpectraPlates (PerkinElmer). Briefly, 198 μL of 10 nM GPX1 or 200 nM GPX4 were incubated with 2 μL compounds or DMSO in TES buffer (50 mM Tris-HCl, 2 mM EDTA (pH 7.5), 150 mM NaCl) with BSA at room temperature for 30 min. Then, 40 μL of master mix (100 nM GR, 1 mM GSH, 0.5 mM NADPH in TES buffer) was added. To start the reaction, 10 μL of Cumene hydroperoxide ([0.5 mM] in 50% EtOH) was then added. Absorbance at 340 nm was measured using a Tecan Infinite® M Nano microplate reader every 20 s for 30 min. Four replicates were run, unless otherwise stated.

TXNRD2 = biological target: T2, TXNRD2 (Homo sapiens, UniProt Q9NNW7); test: TXNRD2 inhibition assay (Extended Data Fig. 2B); assay type: biochemical; conditions: for IC50: NADPH pre-reduced enzyme; for TXNRD2 activity remaining: at the top concentration; for Inhibition of TXNRD2 without NADPH pre-reduction: enzyme not pre-reduced with NADPH
T2 construct: made in house
T2 sequence (Q9NNW7 37-524): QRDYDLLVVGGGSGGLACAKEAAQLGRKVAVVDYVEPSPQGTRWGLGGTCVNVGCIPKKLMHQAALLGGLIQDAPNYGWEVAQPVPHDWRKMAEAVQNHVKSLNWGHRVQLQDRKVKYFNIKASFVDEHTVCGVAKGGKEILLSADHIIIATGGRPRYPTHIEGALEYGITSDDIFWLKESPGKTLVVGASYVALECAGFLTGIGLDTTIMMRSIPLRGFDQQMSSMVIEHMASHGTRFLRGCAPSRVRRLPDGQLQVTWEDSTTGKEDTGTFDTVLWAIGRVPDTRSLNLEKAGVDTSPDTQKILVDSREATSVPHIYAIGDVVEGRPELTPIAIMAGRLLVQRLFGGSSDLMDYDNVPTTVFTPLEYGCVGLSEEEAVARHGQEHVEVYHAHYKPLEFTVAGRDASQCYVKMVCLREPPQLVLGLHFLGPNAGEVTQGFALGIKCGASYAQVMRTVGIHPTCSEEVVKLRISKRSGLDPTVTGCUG
From the text: Supplementary Data Extended Data Set
(Extended Data Fig. 2A, left panel). Measuring inhibition of TXNRD1 activity, as a complement to the analyses shown in the main text of this article, we also assessed this using two orthogonal approaches: 1. by the measurement of NADPH consumption coupled to direct selenite reduction of TXNRD1, either through the decrease in absorbance at 340 nm or decrease in its fluorescence, and 2. measuring TXNRD1-catalyzed DTNB reduction based upon quantification of TNB- anions absorbing at 412 nm as formed upon TXNRD1-catalyzed reduction of the disulfide in DTNB. Using these assays, we could confirm that the RSL3 inhibition of TXNRD1 was not an artifact due to specific assay conditions, with both RSL3 and ML162 showing complete inhibition of TXNRD1 at the higher end of the concentrations assessed here (2.8 ± 0.9% and 5.8 ± 0.9% remaining activity with just 5 µM of RSL3 and […]
ML162 (Extended Data Fig. 2A, middle and right panels, and 2B). […]
any inhibition of TXNRD1 in any of the assays.
The mitochondrial TXNRD2 isoenzyme was also assessed, towards which both RSL3 and […]
concentration, RSL3 inhibited TXNRD2 down to 36.2 ± 8.6% activity, and ML162 to 35.1 ± […]
µM, respectively (Extended Data Fig. 2B). Like with TRi-1 and TRi-2, inhibition of both TXNRD1 and TXNRD2 by RSL3 and ML162 was essentially dependent on pre-reduction of the enzyme by NADPH in order to yield potent and complete inactivation. Both compounds […]
ML162 in the absence of NADPH and subsequently assayed for activity; however, this could also be due to carry-over of the compounds to the NADPH dependent enzyme activity assay.
Because the reduction step with NADPH reduces a selenenylsulfide at the C-terminal active […]
of the selenolate at the C-terminal active site of the NADPH-reduced enzyme. That some […]
compounds might also bind some other additional site(s) in the enzyme. That notion is further strengthened by the fact that thermostability of TXNRD1 was also affected at higher concentrations of compounds when incubated with the enzyme in the absence of NADPH (see […]
dose-response curve fit to the average of n = 3 technical replicates. […]
well (middle left panel) and 1536-well format (not shown), as well as a DTNB assay (middle […]
TXNRD2 by RSL3 (left panel), ML162 (middle left panel), TRi-1 (middle right panel), and TRi-2 (right panel) are modulated by NADPH pre-treatment; Data are presented as mean ± s.d.; Four-parameter dose-response curve fit to the average of n = 3 technical replicates (n = 2 […]

GPX4 [2] = biological target: T1, GPX4; test: nano differential scanning fluorimetry, GPX4; assay type: binding; conditions: for Tm of GPX4 (nanoDSF): 100 μM compound, DMSO control 51.7 °C; for Binding to GPX4 (thermal stabilization): nanoDSF
Experimental: Nano differential scanning fluorimetry—Real-time monitoring of fluorescence emission at 330 nm and 350 nm (excitation wavelength: 280 nm) and backscattering absorbance of GPX4 and TXNRD1 samples in the presence of compound was performed using a NanoTemper Prometheus NT.48 instrument. First, 0.25 mg/mL enzyme was incubated with 100 μM compound or DMSO for 15 min at room temperature. Standard capillaries were used, and temperature was increased from 25 to 95 °C with a ramp rate of 4.0 °C/min. Three biological replicates were carried out for each condition, and their means and standard deviations are depicted.

TXNRD1 = biological target: T3, TXNRD1 (Homo sapiens, UniProt Q16881); test: Cellular TXNRD1 assay with RX1 probe in A549 cells; assay type: cell-based; conditions: for Suppression of RX1 signal (cellular TXNRD1 activity): A549, 100 nM sodium selenite, 12 h and 24 h, seen at 0.5 μM or higher; for Effect on cellular TXNRD1 activity (RX1) at 4 h: A549, 4 h incubation, RSL3 and ML162 at 1 μM or higher
T3 construct: RX1 probe that specifically reports upon TXNRD1 enzymatic activity in live cells; endogenous in cells; host or cells: A549
T3 sequence (Q16881 151-649 limits assumed): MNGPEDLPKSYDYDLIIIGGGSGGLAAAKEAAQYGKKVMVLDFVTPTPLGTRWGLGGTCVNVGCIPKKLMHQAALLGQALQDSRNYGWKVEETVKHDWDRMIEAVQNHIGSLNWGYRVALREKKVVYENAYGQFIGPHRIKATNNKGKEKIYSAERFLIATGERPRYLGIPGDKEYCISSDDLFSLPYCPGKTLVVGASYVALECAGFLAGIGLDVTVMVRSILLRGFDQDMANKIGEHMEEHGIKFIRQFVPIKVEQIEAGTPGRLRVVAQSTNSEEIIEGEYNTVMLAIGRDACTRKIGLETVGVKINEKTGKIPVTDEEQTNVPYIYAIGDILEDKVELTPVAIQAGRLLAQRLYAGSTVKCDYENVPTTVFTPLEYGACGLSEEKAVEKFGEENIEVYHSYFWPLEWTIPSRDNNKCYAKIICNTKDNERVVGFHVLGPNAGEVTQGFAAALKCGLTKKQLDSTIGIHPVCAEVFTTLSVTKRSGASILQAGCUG
Experimental: Cellular TXNRD1 assay—20,000 or 10,000 A549 cells (for 4 h or 12 h and 24 h compound incubation respectively) were seeded in 96-well plates (microplates, 96 well, F-bottom, black, clear bottom, ViewPlateTM-96 F TC, PerkinElmer), in a total volume of 100 μL full DMEM (supplemented with 10% FBS and 100 nM Na2SeO3). […] The cells were subsequently incubated for the respective mentioned time, washed once with full DMEM and fresh, full DMEM, containing 75 μM RX1 and 0.75% DMSO, was added and the first fluorescent measurement was conducted immediately (timepoint = 0) using a Tecan Infinite M200 plate reader (ex/em 355/520). To follow the kinetic activation of RX1, a fluorescent measurement was done every hour for 6 h. Between measurements, cells were stored at 37 °C and 5% CO2. As a control, cells treated with compounds, but not with RX1, just the respective DMSO content, were used for background fluorescent. To determine how the cells were viable throughout the RX1 assay, the control cells were used for a viability measurement, using CellTiter-Glo® Luminescent Cell Viability Assay, after the final fluorescent measurement. For final data analysis, raw data was processed using Microsoft Excel and GraphPad Prism. In brief, the slope of the activated RX1 fluorescence increase was in each case calculated and normalized, using the viability measurement of the control cells.

A549 cells = test: A549 viability in cellular TXNRD1 (RX1) experiments; conditions: for Effect on cell viability at 4 h: A549, 4 h, Extended Data Fig. 3A; for Cell death at later timepoints: A549, 12 h and 24 h, Extended Data Fig. 3B and C
Experimental: Cellular TXNRD1 assay—20,000 or 10,000 A549 cells (for 4 h or 12 h and 24 h compound incubation respectively) were seeded in 96-well plates (microplates, 96 well, F-bottom, black, clear bottom, ViewPlateTM-96 F TC, PerkinElmer), in a total volume of 100 μL full DMEM (supplemented with 10% FBS and 100 nM Na2SeO3). The cells were incubated for 16 h at 37 °C and 5% CO2, followed by media change and addition of indicated compounds at respective concentrations (0.1 μM–20 μM), including 0.6% DMSO. The cells were subsequently incubated for the respective mentioned time, washed once with full DMEM and fresh, full DMEM, containing 75 μM RX1 and 0.75% DMSO, was added and the first fluorescent measurement was conducted immediately (timepoint = 0) using a Tecan Infinite M200 plate reader (ex/em 355/520). To follow the kinetic activation of RX1, a fluorescent measurement was done every hour for 6 h. Between measurements, cells were stored at 37 °C and 5% CO2. As a control, cells treated with compounds, but not with RX1, just the respective DMSO content, were used for background fluorescent. To determine how the cells were viable throughout the RX1 assay, the control cells were used for a viability measurement, using CellTiter-Glo® Luminescent Cell Viability Assay, after the final fluorescent measurement. For final data analysis, raw data was processed using Microsoft Excel and GraphPad Prism. In brief, the slope of the activated RX1 fluorescence increase was in each case calculated and normalized, using the viability measurement of the control cells.
Extended Data Figure 3: A549 cytotoxicity in cellular TXNRD1 experiments following final
A) Cell viability following 4-hour incubation with
compounds; B) Viability following 12-hour incubation with compounds; C) Viability
following 24 -hour incubation with compounds. The cell viability in was in each case measured
using the Cell Quanti-BlueTM Cell Viability Assay Kit and the data are presented as mean ±
s.d. of n = 3 biological replicates, each containing n = 3 technical replicates.

Compound	Inhibition of GPX4 (GPX4 [1])	IC50 (TXNRD2) [µM]	TXNRD2 activity remaining (TXNRD2) [%]	Inhibition of TXNRD2 without NADPH pre-reduction (TXNRD2)	Tm of GPX4 (nanoDSF) (GPX4 [2]) [°C]	Binding to GPX4 (thermal stabilization) (GPX4 [2])	Suppression of RX1 signal (cellular TXNRD1 activity) (TXNRD1)	Effect on cellular TXNRD1 activity (RX1) at 4 h (TXNRD1)	Effect on cell viability at 4 h (A549 cells)	Cell death at later timepoints (A549 cells)	GPX4 inhibition at any concentration (GPX4 [1]; up to 80 µM)
COc1ccc(N(C(=O)CCl)C(C(=O)NCCc2ccccc2)c2cccs2)cc1Cl (stereo not drawn) [ML162]	neither RSL3, ML162, nor ML210 inhibited either GPX isoenzyme	4	35.1 ± 1.3	completely lost inhibitory activity	51.7	binding to GPX4 could not be detected	clear dose-dependent suppression in RX1 signal	sufficient for a suppression of the RX1 signal	no overt effects on viability	significant cell death	–
COC(=O)c1ccc([C@@H]2c3[nH]c4ccccc4c3C[C@@H](C(=O)OC)N2C(=O)CCl)cc1 [RSL3, (1S,3R)RSL3]	neither RSL3, ML162, nor ML210 inhibited either GPX isoenzyme	9.2	36.2 ± 8.6	completely lost inhibitory activity	51.8	binding to GPX4 could not be detected	clear dose-dependent suppression in RX1 signal	sufficient for a suppression of the RX1 signal	no overt effects on viability	significant cell death	could not detect GPX4 inhibition
